The text below walks through data of patent US20160137639A1, “TRIAZOLE-ISOXAZOLE COMPOUND AND MEDICAL USE THEREOF” (JAPAN TOBACCO INC., priority 2012, published 2016).

The target in one assay is T1, human RORγ (Homo sapiens, UniProt P51449).
T1 construct: human, NM_005060.3 and from Ser253 to Lys518; expressed in transfected cells; host or cells: CHO cells (transient co-transfection with pG5-Luc reporter)
T1 sequence (P51449 253-518): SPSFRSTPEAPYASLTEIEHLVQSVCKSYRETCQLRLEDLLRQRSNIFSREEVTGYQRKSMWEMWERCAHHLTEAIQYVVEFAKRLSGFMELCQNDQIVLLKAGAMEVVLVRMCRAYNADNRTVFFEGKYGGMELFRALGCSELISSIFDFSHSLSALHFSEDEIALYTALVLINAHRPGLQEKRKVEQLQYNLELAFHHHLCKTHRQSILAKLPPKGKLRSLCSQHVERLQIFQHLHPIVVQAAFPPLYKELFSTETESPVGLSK
Nature of the assay: Luciferase reporter gene assay of inhibitory effect against RORγ transcriptional activity (GAL4-hRORγ plasmid in CHO cells). The class given is cell-based. To be noted: read-out: LUC EC50 (μM) hRORg. In general terms: Reporter assays use an easily measured gene product as a stand-in for the process of interest.

For another assay, the target named is T2, mouse RORγ (Mus musculus, UniProt P51450).
T2 construct: mouse, NM_011281.2 and from Ile251 to Lys516; expressed in transfected cells; host or cells: CHO cells (transient co-transfection with pG5-Luc reporter)
T2 sequence (P51450 251-516): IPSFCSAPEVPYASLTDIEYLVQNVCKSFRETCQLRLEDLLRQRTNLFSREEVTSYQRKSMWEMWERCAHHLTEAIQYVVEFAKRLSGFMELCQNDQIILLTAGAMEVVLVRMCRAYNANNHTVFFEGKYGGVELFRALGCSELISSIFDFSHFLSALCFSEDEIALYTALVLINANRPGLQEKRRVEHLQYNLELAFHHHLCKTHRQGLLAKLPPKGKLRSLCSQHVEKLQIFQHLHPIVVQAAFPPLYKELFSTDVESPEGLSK
Kind of assay: Luciferase reporter gene assay of inhibitory effect against RORγ transcriptional activity (GAL4-mRORγ plasmid in CHO cells). The class given is cell-based. To be noted: read-out: LUC EC50 (μM) mRORg. In short, it runs like this:
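Readout is intracellular luciferase after 2-day compound exposure (8 concentrations, 0.1% DMSO) in CHO cells expressing GAL4 fused to mouse RORγ LBD residues Ile251–Lys516 plus pG5-Luc reporter. EC50 fitted from %-of-control; points showing resazurin-detected cytotoxicity dropped.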

The term EC50 denotes the concentration needed to bring the measured effect to its halfway point. `CCn1c(CCC(=O)Nc2cccc3ccccc23)nnc1CCc1ccccc1` [Example F-12]: the EC50 at human RORγ and at mouse RORγ was less than 3 µM throughout.

Take `CCn1c(CCC(=O)Nc2cccc3ccccc23)nnc1CCC1CCCCC1` [Example F-13]: the 50% effective concentration (EC50) on human RORγ and at mouse RORγ was less than 3 µM in each case.

For the compound `CCc1c(CCC(=O)Nc2cccc3ccccc23)noc1C1Cc2ccccc2C1` [Example F-14], the EC50 at human RORγ and on mouse RORγ was less than 3 µM in each case.

With `CCn1c(CCC(=O)Nc2cc(C)cc(C)c2)nnc1C1Cc2ccccc2C1` [Example F-16], the EC50 at human RORγ is more than 3 µM; on mouse RORγ, less than 3 µM.

In the case of `CCn1c(CCC(=O)Nc2cccc3ccccc23)nnc1CC1CCCCC1` [Example F-17], the values for the EC50 on human RORγ and at mouse RORγ were more than 3 µM and less than 3 µM, respectively.

Take `CCn1c(CCC(=O)NCc2cccc3ccccc23)nnc1C1Cc2ccccc2C1` [Example F-18]: the EC50 on human RORγ and on mouse RORγ was less than 3 µM in each case.

Turning to `CCn1c(CCC(=O)Nc2cccc3ccccc23)nnc1CCC(C)C` [Example F-19], the EC50 on human RORγ is more than 3 µM; on mouse RORγ, less than 3 µM.

Turning to `CCn1c(CCC(=O)Nc2cccc3ccccc23)nnc1C1CCCCC1` [Example F-20], the EC50 at human RORγ and on mouse RORγ was more than 3 µM in each case.

As for `CCn1c(CCC(=O)NC2CCCCC2)nnc1C1Cc2ccccc2C1` [Example F-21], the EC50 on human RORγ and on mouse RORγ was more than 3 µM throughout.

Take `CCn1c(CCC(=O)NCc2ccccc2)nnc1C1Cc2ccccc2C1` [Example F-22]: the EC50 on human RORγ and on mouse RORγ was more than 3 µM in each case.

For the compound `CCn1c(CCC(=O)Nc2ccccc2)nnc1C1Cc2ccccc2C1` [Example F-23], the EC50 on human RORγ and at mouse RORγ was more than 3 µM throughout.

In the case of `CCn1c(CCC(=O)NC23CC4CC(CC(C4)C2)C3)nnc1C1Cc2ccccc2C1` [Example F-24], the EC50 at human RORγ and on mouse RORγ was more than 3 µM each time.

In the case of `CCn1c(CCC(=O)Nc2cccc3ccccc23)nnc1CCC(C)(C)C` [Example F-25], the EC50 at human RORγ was more than 3 µM; on mouse RORγ it was less than 3 µM.

As to `CCCC(CCC)NC(=O)CCc1nnc(C2Cc3ccccc3C2)n1CC` [Example F-28], the EC50 on human RORγ and on mouse RORγ was more than 3 µM throughout.

As for `CCn1c(CCC(=O)Nc2cc(Cl)cc(Cl)c2)nnc1C1Cc2ccccc2C1` [Example F-29], the EC50 at human RORγ and at mouse RORγ was more than 3 µM in each case.

For the compound `CCn1c(CCC(=O)Nc2cccc(Cl)c2Cl)nnc1C1Cc2ccccc2C1` [Example F-30], the EC50 at human RORγ is more than 3 µM; at mouse RORγ, less than 3 µM.

Take `CCn1c(CCC(=O)Nc2ccc(Cl)cc2Cl)nnc1C1Cc2ccccc2C1` [Example F-31]: the EC50 on human RORγ and on mouse RORγ was more than 3 µM throughout.

Consider `CCn1c(CCC(=O)Nc2cc(C)cc(C)c2)nnc1CCC1CCCCC1` [Example F-38], for which the EC50 at human RORγ is less than 3 µM; at mouse RORγ it was more than 3 µM.

With `CCn1c(CCC(=O)Nc2cccc(Cl)c2C)nnc1CCC1CCCCC1` [Example F-39], the EC50 on human RORγ and at mouse RORγ was less than 3 µM each time.

As to `CCn1c(CCC(=O)Nc2ccc(C)cc2C)nnc1CCC1CCCCC1` [Example F-40], the EC50 at human RORγ and on mouse RORγ was less than 3 µM each time.

Regarding `CCn1c(CCC(=O)NCc2ccccc2C)nnc1CCC1CCCCC1` [Example F-41], the EC50 at human RORγ and on mouse RORγ was less than 3 µM each time.

With `CCn1c(CCC(=O)NCc2cccc(C)c2)nnc1CCC1CCCCC1` [Example F-42], the EC50 at human RORγ and on mouse RORγ was more than 3 µM throughout.

As for `CCn1c(CCC(=O)NCc2ccccc2)nnc1CCC1CCCCC1` [Example F-45], the EC50 on human RORγ and at mouse RORγ was more than 3 µM each time.

For `CCn1c(CCC(=O)Nc2cc(C)cc(C)c2)nnc1CCC(C)(C)C` [Example F-46], the EC50 on human RORγ and on mouse RORγ was more than 3 µM throughout.

`CCn1c(CCC(=O)Nc2ccc(C)cc2C)nnc1CCC(C)(C)C` [Example F-47]: the EC50 was more than 3 µM on human RORγ and less than 3 µM at mouse RORγ.

`CCn1c(CCC(=O)Nc2ccc(C)cc2C)nnc1CCC1CCCC1` [Example F-48]: the EC50 at human RORγ is more than 3 µM; on mouse RORγ, less than 3 µM.

As to `CCn1c(CCC(=O)Nc2cc(C)cc(C)c2)nnc1CCC1CCCC1` [Example F-49], the EC50 at human RORγ and at mouse RORγ was more than 3 µM each time.

For `CCn1c(CCC(=O)Nc2cc(C)cc(C)c2)nnc1CCC(C)C` [Example F-50], the EC50 on human RORγ and on mouse RORγ was more than 3 µM throughout.

As for `CCn1c(CCC(=O)Nc2ccc(C)cc2C)nnc1CCC(C)C` [Example F-51], the EC50 at human RORγ and at mouse RORγ was more than 3 µM throughout.

On to `CCn1c(CCC(=O)Nc2cccc(Cl)c2C)nnc1CCC(C)C` [Example F-52], for which the EC50 at human RORγ was more than 3 µM; on mouse RORγ it was less than 3 µM.

Take `CCn1c(CCC(=O)Nc2cccc(Cl)c2C)nnc1CCC(C)(C)C` [Example F-53]: the EC50 at human RORγ is more than 3 µM; on mouse RORγ, less than 3 µM.

Turning to `CCn1c(CCC(=O)Nc2cccc(Cl)c2C)nnc1CCC1CCCC1` [Example F-54], the EC50 on human RORγ and on mouse RORγ was less than 3 µM in each case.

For the compound `Cc1c(Cl)cccc1NC(=O)CCc1nnc(CCC(C)C)n1C1CC1` [Example F-55], the EC50 at human RORγ is more than 3 µM; at mouse RORγ, less than 3 µM.

On to `CC(C)CCc1nnc(CCC(=O)Nc2ccccc2)n1C1CC1` [Example F-56], for which the EC50 at human RORγ and on mouse RORγ was more than 3 µM each time.

On to `CC(C)CCc1nnc(CCC(=O)NCc2ccccc2)n1C1CC1` [Example F-57], for which the EC50 on human RORγ and on mouse RORγ was more than 3 µM in each case.

For `CC(C)CCc1nnc(CCC(=O)NCCc2ccccc2)n1C1CC1` [Example F-58], the EC50 on human RORγ and on mouse RORγ was more than 3 µM throughout.

As to `Cc1ccccc1CNC(=O)CCc1nnc(CCC(C)C)n1C1CC1` [Example F-59], the EC50 at human RORγ and on mouse RORγ was more than 3 µM throughout.

Regarding `Cc1cccc(CNC(=O)CCc2nnc(CCC(C)C)n2C2CC2)c1` [Example F-60], the EC50 on human RORγ and on mouse RORγ was more than 3 µM in each case.

For `Cc1ccc(CNC(=O)CCc2nnc(CCC(C)C)n2C2CC2)cc1` [Example F-61], the EC50 at human RORγ and on mouse RORγ was more than 3 µM each time.

For the compound `CC(C)CCc1nnc(CCC(=O)N[C@@H](C)c2ccccc2)n1C1CC1` [Example F-62], the EC50 at human RORγ and on mouse RORγ was more than 3 µM in each case.

For the compound `CC(C)CCc1nnc(CCC(=O)N[C@H](C)c2ccccc2)n1C1CC1` [Example F-63], the EC50 at human RORγ and on mouse RORγ was more than 3 µM in each case.

For the compound `Cc1ccccc1NC(=O)CCc1nnc(CCC(C)C)n1C1CC1` [Example F-64], the EC50 at human RORγ and on mouse RORγ was more than 3 µM in each case.

`Cc1cccc(NC(=O)CCc2nnc(CCC(C)C)n2C2CC2)c1` [Example F-65]: the EC50 on human RORγ and at mouse RORγ was more than 3 µM throughout.

On to `Cc1ccc(NC(=O)CCc2nnc(CCC(C)C)n2C2CC2)cc1` [Example F-66], for which the EC50 on human RORγ and at mouse RORγ was more than 3 µM in each case.

Take `Cc1ccc(CCNC(=O)CCc2nnc(CCC(C)C)n2C2CC2)cc1` [Example F-67]: the EC50 on human RORγ and on mouse RORγ was more than 3 µM each time.

Regarding `Cc1cccc(CCNC(=O)CCc2nnc(CCC(C)C)n2C2CC2)c1` [Example F-68], the EC50 at human RORγ and on mouse RORγ was more than 3 µM each time.

Take `Cc1ccc(NC(=O)CCc2nnc(CCC(C)(C)C)n2C2CC2)c(C)c1` [Example F-69]: the EC50 is more than 3 µM at human RORγ and less than 3 µM at mouse RORγ.

In the case of `Cc1cccc(C)c1NC(=O)CCc1nnc(CCC(C)C)n1C1CC1` [Example F-70], the EC50 at human RORγ and at mouse RORγ was more than 3 µM each time.

With `Cc1ccc(C)c(NC(=O)CCc2nnc(CCC(C)C)n2C2CC2)c1` [Example F-71], the EC50 on human RORγ and on mouse RORγ was more than 3 µM throughout.

Take `CCc1ccccc1NC(=O)CCc1nnc(CCC(C)C)n1C1CC1` [Example F-72]: the EC50 at human RORγ and on mouse RORγ was more than 3 µM in each case.

For `COc1ccccc1NC(=O)CCc1nnc(CCC(C)C)n1C1CC1` [Example F-73], the EC50 on human RORγ and on mouse RORγ was more than 3 µM in each case.

For the compound `Cc1ccc(NC(=O)CCc2nnc(CCC(C)C)n2C2CC2)cc1C` [Example F-74], the EC50 at human RORγ and on mouse RORγ was more than 3 µM each time.

Consider `CC(C)CCc1nnc(CCC(=O)Nc2ccccc2C(C)C)n1C1CC1` [Example F-75], for which the EC50 on human RORγ and on mouse RORγ was more than 3 µM throughout.

As to `Cc1cc(C)cc(NC(=O)CCc2nnc(CCC(C)C)n2C2CC2)c1` [Example F-76], the EC50 on human RORγ and on mouse RORγ was more than 3 µM in each case.

For the compound `CCCc1ccccc1NC(=O)CCc1nnc(CCC(C)C)n1C1CC1` [Example F-77], the EC50 at human RORγ and on mouse RORγ was more than 3 µM each time.
